Values joined by “and” are separate entries in the source; they are usually repeats but may differ in a detail not shown here. Identical values can stand only once. Inconclusive results and toxic doses are left out.
Test system: P388 leukemia ip, CD2F1 mice, survival T/C
Test: NCI In Vivo Anticancer Drug Screen. Data for tumor model P388 Leukemia (intraperitoneal) in CD2F1 (CDF1) mice
Conditions: endpoint: median survival time, higher = longer survival
Method in brief: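 Mice carrying the transplanted tumor received test compound or vehicle. Survival was recorded in each group, and the value is the treated-group measurement divided by that of the vehicle-treated control group.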

[1] = dose: 12.5 mg/kg/injection, schedule: Q01DX009 (ip), vehicle: saline with Tween-80
[2] = dose: 25.0 mg/kg/injection, schedule: Q01DX009 (ip), vehicle: saline with Tween-80
[3] = dose: 60.0 mg/kg/injection, schedule: Q01DX005 (ip), vehicle: saline with Tween-80
[4] = dose: 120.0 mg/kg/injection, schedule: Q01DX005 (ip), vehicle: saline with Tween-80
[5] = dose: 240.0 mg/kg/injection, schedule: Q01DX005 (ip), vehicle: saline with Tween-80
[6] = dose: 60.0 mg/kg/injection, schedule: Q01DX005 (ip), vehicle: saline
[7] = dose: 120.0 mg/kg/injection, schedule: Q01DX005 (ip), vehicle: saline
[8] = dose: 240.0 mg/kg/injection, schedule: Q01DX005 (ip), vehicle: saline
[9] = dose: 50.0 mg/kg/injection, schedule: Q01DX005 (ip), vehicle: saline with Tween-80
[10] = dose: 100.0 mg/kg/injection, schedule: Q01DX005 (ip), vehicle: saline with Tween-80
[11] = dose: 50.0 mg/kg/injection, schedule: Q01DX009 (ip), vehicle: saline
[12] = dose: 100.0 mg/kg/injection, schedule: Q01DX009 (ip), vehicle: saline
[13] = dose: 200.0 mg/kg/injection, schedule: Q01DX009 (ip), vehicle: saline
[14] = dose: 50.0 mg/kg/injection, schedule: Q01DX005 (ip), vehicle: Klucel (hydroxypropylcellulose) (HPC)
[15] = dose: 100.0 mg/kg/injection, schedule: Q01DX005 (ip), vehicle: Klucel (hydroxypropylcellulose) (HPC)
[16] = dose: 200.0 mg/kg/injection, schedule: Q01DX005 (ip), vehicle: Klucel (hydroxypropylcellulose) (HPC)
[17] = dose: 50.0 mg/kg/injection, schedule: Q01DX009 (ip), vehicle: Klucel (hydroxypropylcellulose) (HPC)
[18] = dose: 100.0 mg/kg/injection, schedule: Q01DX009 (ip), vehicle: Klucel (hydroxypropylcellulose) (HPC)
[19] = dose: 200.0 mg/kg/injection, schedule: Q01DX009 (ip), vehicle: Klucel (hydroxypropylcellulose) (HPC)
[20] = dose: 200.0 mg/kg/injection, schedule: Q01DX005 (ip), vehicle: saline with Tween-80

Q: Which results are given for O=C(/C=C/c1ccc(OCc2ccccc2)cc1)c1ccc(C(F)(F)F)cc1?
A: T/C [1]: 94 % of control; T/C [2]: 100 % of control; T/C (dose: 50.0 mg/kg/injection, schedule: Q01DX009 (ip), vehicle: saline with Tween-80): 90 % of control and 93 % of control; T/C (dose: 200.0 mg/kg/injection, schedule: Q01DX009 (ip), vehicle: saline with Tween-80): 95 % of control

Q: What does the source list for C=C(CO)CC(CC(=C)CCS(=O)(=O)c1ccccc1)S(=O)(=O)c1ccccc1 (stereo not drawn)?
A: T/C [3]: 94 % of control; T/C [4]: 106 % of control; T/C [5]: 100 % of control

Q: What does the source list for COC(=O)CC1CC(CCO)=C(C)C1=O (stereo not drawn)?
A: T/C [6]: 101 % of control; T/C [7]: 99 % of control; T/C [8]: 100 % of control

Q: Which results are given for Cc1cc(Nc2ccc(N(CCCl)CCCl)cc2)cc(C)c1O?
A: T/C (dose: 6.25 mg/kg/injection, schedule: Q01DX009 (ip), vehicle: saline with Tween-80): 151 % of control; T/C [1]: 154 % of control and 169 % of control; T/C [2]: 169 % of control and 175 % of control

Q: What does the source list for CCOC(=O)C1=C(C)O/C(=C\c2cccc(C(F)(F)F)c2)C1=O?
A: T/C [9]: 108 % of control; T/C [10]: 109 % of control

Q: How did the T/C [11] turn out when C=CC(C)n1ccnc1 (stereo not drawn) was run?
A: The T/C was 101 % of control.

Q: What about the T/C [12] of the same compound?
A: The T/C was 97 % of control.

Q: What about the T/C [13] of the same compound?
A: The T/C was 102 % of control.

Q: C[C@@]12CCC[C@@](C)(C(=O)O)[C@H]1CC[C@]13C[C@@H](CO)[C@@H](CC[C@H]12)C3 was tested. Which T/C [14] did it give?
A: Its T/C is 99 % of control.

Q: What about the T/C [15] of the same compound?
A: Its T/C is 90 % of control.

Q: And the T/C [16]?
A: The T/C was 87 % of control.

Q: Which T/C (dose: 50.0 mg/kg/injection, schedule: Q01DX005 (ip), vehicle: saline) does the source give for CC(=O)/C(=C\C=C\c1ccccc1)C(=O)CCN(C)C here?
A: The T/C was 98 % of control.

Q: What about the T/C (dose: 100.0 mg/kg/injection, schedule: Q01DX005 (ip), vehicle: saline) of the same compound?
A: Its T/C is 109 % of control.

Q: What about the T/C (dose: 200.0 mg/kg/injection, schedule: Q01DX005 (ip), vehicle: saline) of the same compound?
A: The T/C was 118 % of control.

Q: With c1ccc2c(NC3=NCCO3)c3ccccc3nc2c1 as the compound, how does the T/C (dose: 3.12 mg/kg/injection, schedule: Q01DX009 (ip), vehicle: Klucel (hydroxypropylcellulose) (HPC)) read?
A: The T/C was 95 % of control.

Q: What about the T/C (dose: 6.25 mg/kg/injection, schedule: Q01DX009 (ip), vehicle: Klucel (hydroxypropylcellulose) (HPC)) of the same compound?
A: Its T/C is 95 % of control.

Q: And the T/C (dose: 12.5 mg/kg/injection, schedule: Q01DX009 (ip), vehicle: Klucel (hydroxypropylcellulose) (HPC))?
A: The T/C was 103 % of control.

Q: What about the T/C (dose: 25.0 mg/kg/injection, schedule: Q01DX009 (ip), vehicle: Klucel (hydroxypropylcellulose) (HPC)) of the same compound?
A: The T/C was 111 % of control.

Q: Which results are given for COc1cccc(C2c3cc4c(cc3OC(C)(N3CCCC3)C2C)OCO4)c1OC (stereo not drawn)?
A: T/C (dose: 60.0 mg/kg/injection, schedule: Q01DX005 (ip), vehicle: Klucel (hydroxypropylcellulose) (HPC)): 99 % of control; T/C (dose: 120.0 mg/kg/injection, schedule: Q01DX005 (ip), vehicle: Klucel (hydroxypropylcellulose) (HPC)): 88 % of control

Q: With Cc1ccc(NC(=O)Nc2nc3ccccc3s2)cc1NC(=O)Nc1nc2ccccc2s1 as the compound, how does the T/C [17] read?
A: The T/C was 110 % of control.

Q: And the T/C [18]?
A: Its T/C is 102 % of control.

Q: And the T/C [19]?
A: Its T/C is 109 % of control.

Q: How did the T/C (dose: 100.0 mg/kg/injection, schedule: Q01DX001 (ip), vehicle: saline) turn out when CCCCCCCCC1=CCc2c1ccc1c2ccc2cc(C(=O)Oc3cccc(N(CCCl)CCCl)c3)ccc21 was run?
A: Its T/C is 99 % of control.

Q: What about the T/C (dose: 200.0 mg/kg/injection, schedule: Q01DX001 (ip), vehicle: saline) of the same compound?
A: The T/C was 100 % of control.

Q: And the T/C (dose: 400.0 mg/kg/injection, schedule: Q01DX001 (ip), vehicle: saline)?
A: Its T/C is 100 % of control.

Q: For CSC1NN=C(CCC(=O)Nc2ccc(C)cc2)O1 (stereo not drawn), which T/C [3] is on record?
A: The T/C was 108 % of control.

Q: What about the T/C [4] of the same compound?
A: The T/C was 92 % of control.

Q: And the T/C [5]?
A: The T/C was 102 % of control.

Q: What does the source list for O=[N+]([O-])O.[Al]?
A: T/C (dose: 25.0 mg/kg/injection, schedule: Q01DX009 (ip), vehicle: saline): 100 % of control; T/C [11]: 91 % of control; T/C [12]: 86 % of control; T/C (dose: 100.0 mg/kg/injection, schedule: Q04DX003 (ip), vehicle: saline): 90 % of control

Q: Which results are given for CCOC(=O)/C(C#N)=C/NCCc1c[nH]c2ccccc12?
A: T/C [14]: 102 % of control; T/C [15]: 103 % of control; T/C [16]: 94 % of control

Q: How did the T/C [9] turn out when OCC1OC(O)C(N=C/C=C/c2ccccc2)C(O)C1O (stereo not drawn) was run?
A: Its T/C is 104 % of control.

Q: What about the T/C [10] of the same compound?
A: Its T/C is 117 % of control.

Q: And the T/C [20]?
A: Its T/C is 115 % of control.

Q: Which results are given for O=C(c1ccccc1)N1OCCCc2ccccc21?
A: T/C [3]: 104 % of control; T/C [4]: 96 % of control; T/C [5]: 91 % of control

Q: CCCN1C=C(C(=O)OC)C(N)=C(C#N)/C1=C\C=C(/C#N)C(=O)OC was tested. Which T/C (dose: 50.0 mg/kg/injection, schedule: Q04DX002 (ip), vehicle: Klucel (hydroxypropylcellulose) (HPC)) did it give?
A: The T/C was 93 % of control.

Q: What about the T/C (dose: 100.0 mg/kg/injection, schedule: Q04DX002 (ip), vehicle: Klucel (hydroxypropylcellulose) (HPC)) of the same compound?
A: The T/C was 100 % of control.

Q: And the T/C (dose: 200.0 mg/kg/injection, schedule: Q04DX002 (ip), vehicle: Klucel (hydroxypropylcellulose) (HPC))?
A: Its T/C is 90 % of control.

Q: How did the T/C [3] turn out when CC(=O)OCCOCNC(=S)N/N=C/c1ccccn1 was run?
A: The T/C was 115 % of control.

Q: Cc1noc(NS(=O)(=O)c2ccc(NCc3c4ccccc4nc4cc(Cl)ccc34)cc2)c1C was tested. Which T/C [3] did it give?
A: Its T/C is 100 % of control.

Q: And the T/C [4]?
A: The T/C was 97 % of control.

Q: And the T/C [5]?
A: The T/C was 103 % of control.

Q: Which T/C [17] does the source give for Cc1cc(=O)n2[nH]c(-c3ccc(Cl)cc3)nc2n1 here?
A: Its T/C is 106 % of control.

Q: And the T/C [18]?
A: The T/C was 103 % of control.

Q: What about the T/C [19] of the same compound?
A: The T/C was 100 % of control.

Q: Which T/C [3] does the source give for O=C(O)C(CS)NSc1ccccc1[N+](=O)[O-] (stereo not drawn) here?
A: The T/C was 111 % of control.

Q: What about the T/C [4] of the same compound?
A: The T/C was 112 % of control.

Q: What about the T/C [5] of the same compound?
A: Its T/C is 102 % of control.

Q: With COc1ccc(C[N+]2=Cc3cc(OC)c(OC)cc3CC2)cc1 as the compound, how does the T/C (dose: 12.5 mg/kg/injection, schedule: Q01DX001 (ip), vehicle: saline + alcohol) read?
A: Its T/C is 100 % of control.

Q: What about the T/C (dose: 25.0 mg/kg/injection, schedule: Q01DX001 (ip), vehicle: saline + alcohol) of the same compound?
A: Its T/C is 98 % of control.

Q: And the T/C (dose: 50.0 mg/kg/injection, schedule: Q01DX001 (ip), vehicle: saline + alcohol)?
A: The T/C was 98 % of control.

Q: Which results are given for O=C(c1c(F)c(F)c(F)c(F)c1F)n1ccnc1?
A: T/C [6]: 104 % of control; T/C [7]: 101 % of control; T/C [8]: 87 % of control

Q: Which T/C [11] does the source give for CCO/C=N\Nc1ccc2nnc(Cl)n2n1 here?
A: Its T/C is 92 % of control.

Q: What about the T/C [12] of the same compound?
A: The T/C was 103 % of control.

Q: And the T/C [13]?
A: Its T/C is 93 % of control.

Q: How did the T/C (dose: 50.0 mg/kg/injection, schedule: Q04DX003 (ip), vehicle: suspension in saline) turn out when CCOC(=O)C1=NN2c3ccccc3OCC2C1 (stereo not drawn) was run?
A: Its T/C is 99 % of control.

Q: And the T/C (dose: 100.0 mg/kg/injection, schedule: Q04DX003 (ip), vehicle: suspension in saline)?
A: Its T/C is 101 % of control.

Q: And the T/C (dose: 200.0 mg/kg/injection, schedule: Q04DX003 (ip), vehicle: suspension in saline)?
A: Its T/C is 100 % of control.

Q: O=c1sc(N=Nc2ccccc2)nn1-c1ccccc1 was tested. Which T/C (dose: 50.0 mg/kg/injection, schedule: Q04DX003 (ip), vehicle: other) did it give?
A: Its T/C is 90 % of control.

Q: And the T/C (dose: 100.0 mg/kg/injection, schedule: Q04DX003 (ip), vehicle: other)?
A: The T/C was 95 % of control.

Q: What about the T/C (dose: 200.0 mg/kg/injection, schedule: Q04DX003 (ip), vehicle: other) of the same compound?
A: Its T/C is 95 % of control.

Q: Brc1c(-c2ccccc2)nc2ccccc2c1Br was tested. Which T/C [9] did it give?
A: The T/C was 103 % of control.

Q: What about the T/C [10] of the same compound?
A: Its T/C is 97 % of control.

Q: What about the T/C [20] of the same compound?
A: Its T/C is 94 % of control.

Source: PubChem BioAssay AID330 (DTP/NCI, 2004)
